According to patent US11370773B1, “Inhibiting human integrin (alpha-4) (beta-7)” (Morphic Therapeutic, Inc., priority 2019, dated 2022):

Molecular target: T1, α4β7 (Homo sapiens, UniProt P13612+P26010)
T1 construct: α4β7 expressing cells (RPMI-8866); endogenous in cells; host or cells: RPMI 8866
T1 sequence (P13612 34-1032): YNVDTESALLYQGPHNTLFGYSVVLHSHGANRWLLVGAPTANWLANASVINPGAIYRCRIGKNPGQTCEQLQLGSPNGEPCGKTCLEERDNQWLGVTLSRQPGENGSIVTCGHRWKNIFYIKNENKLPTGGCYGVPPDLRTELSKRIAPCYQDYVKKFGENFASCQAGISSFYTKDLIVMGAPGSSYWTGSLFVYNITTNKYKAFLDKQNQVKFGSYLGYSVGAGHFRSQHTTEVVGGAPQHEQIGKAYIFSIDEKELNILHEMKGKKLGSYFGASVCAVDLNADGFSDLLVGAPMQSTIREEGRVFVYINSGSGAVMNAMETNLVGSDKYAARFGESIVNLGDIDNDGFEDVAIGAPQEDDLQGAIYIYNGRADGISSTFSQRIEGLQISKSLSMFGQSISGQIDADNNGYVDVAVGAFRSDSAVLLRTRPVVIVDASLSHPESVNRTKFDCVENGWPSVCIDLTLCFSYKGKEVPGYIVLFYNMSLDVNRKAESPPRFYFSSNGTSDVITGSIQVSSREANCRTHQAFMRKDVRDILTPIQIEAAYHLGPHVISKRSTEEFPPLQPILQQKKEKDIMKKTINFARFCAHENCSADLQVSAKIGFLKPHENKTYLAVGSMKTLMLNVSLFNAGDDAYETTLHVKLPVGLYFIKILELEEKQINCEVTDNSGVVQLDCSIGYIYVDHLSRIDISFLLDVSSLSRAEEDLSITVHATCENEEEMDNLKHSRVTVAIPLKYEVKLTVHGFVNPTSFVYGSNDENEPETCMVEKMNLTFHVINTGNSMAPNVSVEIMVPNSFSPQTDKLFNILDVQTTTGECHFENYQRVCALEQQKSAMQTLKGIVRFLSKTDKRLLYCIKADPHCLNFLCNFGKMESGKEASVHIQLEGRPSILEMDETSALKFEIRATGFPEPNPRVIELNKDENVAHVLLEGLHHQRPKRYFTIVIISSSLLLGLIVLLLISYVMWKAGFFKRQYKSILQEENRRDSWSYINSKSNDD
T1 sequence (P26010 20-798): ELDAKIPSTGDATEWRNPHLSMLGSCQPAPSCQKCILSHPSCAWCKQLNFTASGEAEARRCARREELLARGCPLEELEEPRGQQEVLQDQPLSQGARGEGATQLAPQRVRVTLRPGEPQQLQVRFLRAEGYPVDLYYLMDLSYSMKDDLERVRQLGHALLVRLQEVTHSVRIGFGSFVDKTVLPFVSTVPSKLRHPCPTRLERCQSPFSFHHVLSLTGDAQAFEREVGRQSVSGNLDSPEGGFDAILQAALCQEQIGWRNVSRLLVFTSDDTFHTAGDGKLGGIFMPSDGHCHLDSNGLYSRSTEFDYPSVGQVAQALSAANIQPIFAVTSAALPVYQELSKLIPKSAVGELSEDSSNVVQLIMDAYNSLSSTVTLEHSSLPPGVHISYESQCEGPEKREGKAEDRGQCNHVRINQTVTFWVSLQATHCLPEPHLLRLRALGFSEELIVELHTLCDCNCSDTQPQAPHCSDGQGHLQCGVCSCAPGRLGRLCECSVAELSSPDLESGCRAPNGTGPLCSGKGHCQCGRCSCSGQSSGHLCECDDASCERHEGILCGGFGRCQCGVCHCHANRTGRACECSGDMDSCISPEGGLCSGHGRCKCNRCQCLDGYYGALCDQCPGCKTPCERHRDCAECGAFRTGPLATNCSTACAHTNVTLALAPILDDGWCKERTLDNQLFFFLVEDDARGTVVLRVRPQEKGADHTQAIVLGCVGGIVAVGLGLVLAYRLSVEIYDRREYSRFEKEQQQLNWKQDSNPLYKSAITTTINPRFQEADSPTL
Experiment: Cell adhesion assay, RPMI8866 cells adhering to MAdCAM coated plates
Format: cell-based
Conditions: RPMI8866 cells on recombinant human MAdCAM coated plates; read-out: CA Assay (Example 7) IC50
Experimental: Three in vitro assays were used to examine the α4β7 mechanistic process used by cells: 1) ligand:receptor affinity, 2) the avidity of those interactions on a cell's surface, and 3) how those interactions fare under an imposing force. In Example 5, a Fluorescence Polarization (FP) assay is used to measure compound activity through binding competition with the fluorescein-labeled peptide. In Example 6, the potency of compounds against α4β7 is measured in the cell-based ligand binding assay (LBA), using RPMI 8866 cells incubated with the compound samples in competition with soluble MAdCAM-1 ligand. In Example 7, activity of compounds is evaluated in a cell adhesion assay that mechanistically tests what occurs in vivo when trafficking cells utilize α4β7 to adhere to MAdCAM-1 expressing HEVs of the gut during the extravasation process. In the cell adhesion assay of Example 7, a MAdCAM1-(Fc) is coated on plastic, and α4β7 expressing cells (RPMI-8866) are allowed to adhere to the coated surface in the presence of the test compounds. Next, the force of washing with buffer is applied to cells thereby testing the strength of that adhesion. Unattached cells are removed and the remaining adherent cells are quantified.
Example 7 describes a cell adhesion assay.
To each well of a 96 well plate, 100 ug of recombinant human MAdCAM in 100 ul PBS is added and incubated overnight at 4° C. After incubation MAdCAM is removed by aspiration and 200 ul of PBS+1% BSA is added to block the plate for 2 hours at 37° C. and 5% CO2. During this incubation dilution curves of compound are made in 100% DMSO in 96 well V bottom plates. 1.75 ul of diluted compounds are then transferred to a new 96 well U bottom plate containing 20 ul of assay media (phosphate free DMEM+25 mM HEPES+1% BSA). To this an additional 155 ul of assay media is added with mixing by pipetting up and down. This mixture is allowed to incubate for 15 minutes at 37° C. and 5% CO2. After incubation 175 ul of assay media containing 2e6/mL RPMI8866 cells is added to compound containing wells without mixing and plate is allowed to incubate for another 15 minutes at 37° C. and 5% CO2. During this incubation MAdCAM coated plates are removed from incubator and washed twice with 200 ul PBS+0.1% BSA. […] This plate is then incubated at 37° C. and 5% CO2 for 1 hour. After incubation plates are washed twice with 200 ul and once with 50 ul of phenol free RPMI+1% BSA. A final 50 ul of phenol free RPMI+1% BSA is added to wells after last wash. Next 50 ul of Promega cell titer glow is added to the wells. Plate is incubated on shaker for 2 minutes at 200 RPM followed by another 8 minutes off shaker before having the luminescence read on a Biotek Citation 5 plate reader. Raw data is converted to % inhibition compared to bottom of curve and analyzed using a 4-parameter non linear curve in Prism to determine IC50 and IC90.

Row | SMILES | IC50 [nM]
1 | Cc1cc(C2CC2)cc(C)c1-c1cc(C(F)(F)F)c(F)c([C@H](CC(=O)O)NC(=O)[C@H](CC(C)C)n2cc(CCCN(C)C)c(C(F)(F)F)cc2=O)c1F [HU-P2, (3S)-3-(4′-cyclopropyl-2,4-difluoro-2′,6′-dimethyl-5-(trifluoromethyl)-[1,1′-biphenyl]-3-yl)-3-(2-(5-(3-(dimethylamino)propyl)-2-oxo-4-(trifluoromethyl)pyridin-1(2H)-yl)-4-methylpentanamido)propanoic Acid] | 5 to 10
2 | Cc1cc(C)c(-c2cc(C)c(F)c([C@H](CC(=O)O)NC(=O)[C@H](CC(C)C)n3cc(CCCN(C)C)c(C(F)(F)F)cc3=O)c2F)c(C)c1F [IW-P2, (3S)-3-(2-(5-(3-(dimethylamino)propyl)-2-oxo-4-(trifluoromethyl)pyridin-1(2H)-yl)-4-methylpentanamido)-3-(2,3′,4-trifluoro-2′,4′,5,6′-tetramethyl-[1,1′-biphenyl]-3-yl)propanoic Acid] | 5 to 10
3 | Cc1ccn([C@@H](NC(C)C)C(=O)N[C@@H](CC(=O)O)c2cncc(-c3c(C)cccc3C)c2)c(=O)c1 [Example C-7, reference compound] | 10 to 50
4 | Cc1cc(C)c(-c2cc(C(F)(F)F)c(F)c([C@H](CC(=O)O)NC(=O)[C@H](CC(C)C)n3cc(CCCN(C)C)c(C(F)(F)F)cc3=O)c2F)c(C)c1 [HZ-P2, (3S)-3-(2,4-difluoro-2′,4′,6′-trimethyl-5-(trifluoromethyl)biphenyl-3-yl)-3-(2-(5-(3-(dimethylamino)propyl)-2-oxo-4-(trifluoromethyl)pyridin-1(2H)-yl)-4-methylpentanamido)propanoic Acid] | 5 to 10
5 | Cc1ccc(F)c(C)c1-c1cc(C2CC2)c(F)c([C@H](CC(=O)O)NC(=O)[C@H](CC(C)C)n2cc(CCN3CCC3)c(C(F)(F)F)cc2=O)c1F [HH-P2, (3S)-3-(2-(5-(2-(azetidin-1-yl)ethyl)-2-oxo-4-(trifluoromethyl)pyridin-1(2H)-yl)-4-methylpentanamido)-3-(5-cyclopropyl-2,3′,4-trifluoro-2′,6′-dimethyl-[1,1′-biphenyl]-3-yl)propanoic Acid] | 5 to 10

Further lines, results first:

Row | IC50 [nM] | SMILES
6 | < 5 | Cc1cc(F)c(C)c(C)c1-c1cc(C(F)(F)F)c(F)c([C@H](CC(=O)O)NC(=O)[C@H](CC(C)C)n2cc(CCN3CCC3)c(C(F)(F)F)cc2=O)c1F [KT-P2, (3S)-3-(2-(5-(2-(azetidin-1-yl)ethyl)-2-oxo-4-(trifluoromethyl)pyridin-1(2H)-yl)-4-methylpentanamido)-3-(2,4,4′-trifluoro-2′,3′,6′-trimethyl-5-(trifluoromethyl)-[1,1′-biphenyl]-3-yl)propanoic Acid]
7 | < 5 | Cc1cc(C)c(-c2cc(C3CC3)c(F)c([C@H](CC(=O)O)NC(=O)[C@H](CC(C)C)n3cc(CCN4CCC4)c(C(F)(F)F)cc3=O)c2F)c(C)c1 [HM-P2, (3S)-3-(2-(5-(2-(azetidin-1-yl)ethyl)-2-oxo-4-(trifluoromethyl)pyridin-1(2H)-yl)-4-methylpentanamido)-3-(5-cyclopropyl-2,4-difluoro-2′,4′,6′-trimethylbiphenyl-3-yl)propanoic Acid]
8 | < 5 | Cc1cc(F)cc(C)c1-c1cc(C(F)(F)F)c(F)c([C@H](CC(=O)O)NC(=O)[C@H](CC(C)C)n2cc(CCCN(C)C)c(C(F)(F)F)cc2=O)c1F [HW-P2, (3S)-3-(2-(5-(3-(dimethylamino)propyl)-2-oxo-4-(trifluoromethyl)pyridin-1(2H)-yl)-4-methylpentanamido)-3-(2,4,4′-trifluoro-2′,6′-dimethyl-5-(trifluoromethyl)-[1,1′-biphenyl]-3-yl)propanoic Acid]
9 | < 5 | Cc1cc(-c2c(C)cc(F)cc2C)cc([C@H](CC(=O)O)NC(=O)[C@H](CC(C)C)n2cc(CCN(C)C)cc(C(F)F)c2=O)c1F [I-P2, (3S)-3-(4,4′-difluoro-2′,5,6′-trimethyl-[1,1′-biphenyl]-3-yl)-3-(2-(3-(difluoromethyl)-5-(2-(dimethylamino)ethyl)-2-oxopyridin-1(2H)-yl)-4-methylpentanamido)propanoic Acid]
10 | < 5 | Cc1cc(C)c(-c2cc(C(F)(F)F)c(F)c([C@H](CC(=O)O)NC(=O)[C@H](CC(C)C)n3cc(CCN4CCC4)c(C(F)(F)F)cc3=O)c2F)c(C)c1 [IG-P2, (3S)-3-(2-(5-(2-(azetidin-1-yl)ethyl)-2-oxo-4-(trifluoromethyl)pyridin-1(2H)-yl)-4-methylpentanamido)-3-(2,4-difluoro-2′,4′,6′-trimethyl-5-(trifluoromethyl)biphenyl-3-yl)propanoic Acid]
11 | < 5 | Cc1cc(C)c(-c2cc(C(F)(F)F)c(F)c([C@H](CC(=O)O)NC(=O)[C@H](CC(C)C)n3cc(CCN(C)C)c(C(F)(F)F)cc3=O)c2F)c(C)c1 [IF-P2, (3S)-3-(2,4-difluoro-2′,4′,6′-trimethyl-5-(trifluoromethyl)-[1,1′-biphenyl]-3-yl)-3-(2-(5-(2-(dimethylamino)ethyl)-2-oxo-4-(trifluoromethyl)pyridin-1(2H)-yl)-4-methylpentanamido)propanoic Acid]
